Results reported in ChEMBL document CHEMBL2095176, “GSK Tuberculosis Screening Data”.
In brackets after ≈: the same amount, converted by molar mass.

What follows are compounds tested on Mycobacterium tuberculosis variant bovis BCG (assay: microbe, parasite or virus in culture).
Assay type: functional

Point of comparison: `Nc1cccnc1Nc1ccc(Cl)cc1`, MIC90 1.1 µM (≈ 0.242 µg/mL). Against it:
- O=C(COc1ccc(Br)cc1)NNC(=O)c1cccs1 — 2.2-fold higher, 2.4 µM (≈ 0.853 µg/mL)
- COc1ccc(-c2ccc(Nc3cccc(S(=O)(=O)CCN(C)Cc4ccccc4)c3)nc2)cn1 — 6.7-fold higher, 7.4 µM (≈ 3.62 µg/mL)
- O=c1oc2ccccc2nc1CS(=O)(=O)c1ccc(Br)cc1 — 4.3-fold higher, 4.7 µM (≈ 1.79 µg/mL)
- O=C(Nc1nncs1)c1c(O)c2ccccc2n(Cc2ccccc2)c1=O — 6.3-fold higher, 6.9 µM (≈ 2.61 µg/mL)
- Nc1nc(SCc2cccc(F)c2F)nc2[nH]c(=O)cnc12 — 4-fold higher, 4.4 µM (≈ 1.41 µg/mL)
- Cc1ccc(N2C(=O)NC(=O)C(=Cc3ccc[nH]3)C2=O)cc1 — 8-fold higher, 8.8 µM (≈ 2.6 µg/mL)
- O=c1c2snc(-c3ccc(F)cc3)c2ncn1Cc1ccc(F)cc1 — 8.7-fold higher, 9.6 µM (≈ 3.41 µg/mL)
- COc1cc(CN2CCC3(C=Cc4ccccc43)CC2)cc2c1OCO2 — 2.8-fold higher, 3.1 µM (≈ 1.08 µg/mL)
- CC1=Nc2ccccc2CN1CC(O)c1cc(Br)cs1 (configuration not stated) — 7.6-fold higher, 8.4 µM (≈ 2.95 µg/mL)
- O=C(Nc1ccccc1C(F)(F)F)N1CCN(c2ccc3nnc(-c4ccc(F)cc4)n3n2)CC1 — 3.6-fold higher, 4 µM (≈ 1.94 µg/mL)
- O=C(CCc1ccsc1)Nc1nc(-c2ccccn2)cs1 — 8.5-fold higher, 9.4 µM (≈ 2.96 µg/mL)
- Cc1cc(Br)ccc1-c1ccc(CNCC(C)O)o1 (configuration not stated) — 9-fold higher, 9.9 µM (≈ 3.21 µg/mL)
- COc1ccc(Nc2ccccc2N)cc1Cl — 2.1-fold higher, 2.3 µM (≈ 0.572 µg/mL)
- CCOc1ccc(OCc2ccc(C(=O)NNC(=O)c3ccc([N+](=O)[O-])o3)cc2)cc1 — within 1.5-fold, 1.6 µM (≈ 0.681 µg/mL)
- CN(C)CCCC(=O)Nc1[nH]nc2cnc(-c3cncc(-c4ccccc4)c3)cc12 — 7.6-fold higher, 8.4 µM (≈ 3.36 µg/mL)
- Cc1ccc2c(OC3CCNCC3)cccc2n1 — 5.4-fold higher, 5.9 µM (≈ 1.43 µg/mL)
- O=C(Nc1nnc(SCc2ccc(F)cc2)s1)c1ccccn1 — 4.2-fold higher, 4.6 µM (≈ 1.59 µg/mL)
- O=C(CSc1ccc(Cl)cc1)Nc1nc(-c2ccccn2)cs1 — 4.3-fold higher, 4.7 µM (≈ 1.7 µg/mL)
- CCc1c(C)nc(-n2nc(C)cc2NC(=O)c2ccccc2SC)[nH]c1=O — 3.3-fold higher, 3.6 µM (≈ 1.38 µg/mL)
- CN(C)c1ccc(NC(=O)Nc2cnsn2)cc1 — 2.9-fold higher, 3.2 µM (≈ 0.843 µg/mL)
- Cc1ccc(S(=O)(=O)c2nc(S(=O)(=O)c3ccccc3)sc2Cl)cc1 — 8.7-fold higher, 9.6 µM (≈ 3.97 µg/mL)
- Cc1sc2nc(C3CC3)n(C3CCN(CC(=O)N4CCCC4)CC3)c(=O)c2c1C — 4.5-fold higher, 5 µM (≈ 2.07 µg/mL)
- Fc1ccc(-c2nnc3sc(Cc4ccccc4)nn23)cc1 — 7.8-fold higher, 8.6 µM (≈ 2.67 µg/mL)
- CC1CNC(c2ccc(NC(=O)c3ccc(C(=O)Nc4ccc(C5=NC(C)CN5)cc4)cc3)cc2)=N1 (configuration not stated) — within 1.5-fold, 0.8 µM (≈ 0.384 µg/mL)
- O=C(Nc1ccccc1-c1nc(Br)cs1)OCC1CCNCC1 — 7.3-fold higher, 8 µM (≈ 3.17 µg/mL)
- O=C(O)c1ccccc1COc1ccccc1 — 2.2-fold lower, 0.5 µM (≈ 0.114 µg/mL)
- Cn1nc(C(=O)N2CCc3sccc3C2c2ccccc2)c2ccccc2c1=O (configuration not stated) — 1.8-fold higher, 2 µM (≈ 0.803 µg/mL)
- O=C(Nc1cccc2cccnc12)c1cnccn1 — 8.5-fold higher, 9.4 µM (≈ 2.35 µg/mL)
- O=C(Nc1nnc(-c2ccccc2)o1)c1ccc(Cl)s1 — 8.9-fold higher, 9.8 µM (≈ 3 µg/mL)
- COc1ccccc1-c1cc(O)c2c(C)nn(-c3ccccc3)c2n1 — 1.9-fold higher, 2.1 µM (≈ 0.696 µg/mL)
- Cc1ccc2nc(C(F)(F)F)c(C(=O)NCc3ccco3)n2c1 — 4.5-fold higher, 4.9 µM (≈ 1.58 µg/mL)
- O=C(Nc1nc(-c2ccccn2)cs1)c1cccc(F)c1 — 1.8-fold higher, 2 µM (≈ 0.599 µg/mL)
- Cn1c(Sc2ccnc(N3CCN(c4ccncc4)CC3)n2)nnc1C(N)=O — 6.3-fold higher, 6.9 µM (≈ 2.74 µg/mL)
- COc1ccc(Cc2nn3c(-c4ccc(C)cc4)nnc3s2)cc1 — 6.8-fold higher, 7.5 µM (≈ 2.52 µg/mL)
- O=C(C=Cc1ccccc1)Nc1nc(-c2ccccn2)cs1 — 3-fold higher, 3.3 µM (≈ 1.01 µg/mL)
- Cc1n[nH]c(C)c1S(=O)(=O)NCc1nc(NCCCc2ccccc2)c2ccccc2n1 — 5.4-fold higher, 5.9 µM (≈ 2.66 µg/mL)
- c1csc(-c2nnc(Sc3ccnc(N4CCN(c5ccncc5)CC4)n3)n2CCCN2CCOCC2)c1 — 4.9-fold higher, 5.4 µM (≈ 2.97 µg/mL)
- C=CCNCCS(=O)(=O)c1cccc(Nc2ncc(-c3cccc(F)c3)cn2)c1 — 8.7-fold higher, 9.6 µM (≈ 3.96 µg/mL)
- c1ccc2oc(CN3CCC4(CC3)OCCc3sccc34)cc2c1 — 2.5-fold higher, 2.8 µM (≈ 0.95 µg/mL)
- c1cc(Oc2ccnc(N3CCC4(CCNC4)CC3)n2)c2cc[nH]c2c1 — 6.8-fold higher, 7.5 µM (≈ 2.62 µg/mL)
- CSc1ccc(C(=O)Nc2nnc(-c3ccc4c(c3)CCCC4)o2)cc1 — 6.4-fold higher, 7 µM (≈ 2.56 µg/mL)
- CS(=O)(=O)c1cccc(C(=O)Nc2nc(-c3ccccn3)cs2)c1 — 3-fold higher, 3.3 µM (≈ 1.19 µg/mL)
- CN1CCN(c2cc(-c3ccncc3)nc(-c3ccccc3)n2)CC1 — 7.7-fold higher, 8.5 µM (≈ 2.82 µg/mL)
- O=C1NN=C(c2ccc3c(c2)OCO3)N[C@H]1Cc1c[nH]c2ccccc12 — 5.6-fold higher, 6.2 µM (≈ 2.16 µg/mL)
- O=C(CSCc1ccc(Cl)cc1)NNC(=O)c1ccncc1 — 8.8-fold higher, 9.7 µM (≈ 3.26 µg/mL)
- CCN(Cc1nc2ccccc2c(=O)[nH]1)C1CCCc2cccnc21 (configuration not stated) — 4-fold higher, 4.4 µM (≈ 1.47 µg/mL)
- COc1ccc(S(=O)(=O)Nc2ccc(Nc3ccccc3)cc2OC)cc1 — 2.7-fold higher, 3 µM (≈ 1.15 µg/mL)
- FC(F)(F)c1ccccc1C1CCN(Cc2[nH]nc3ccccc23)CC1 — 5.7-fold higher, 6.3 µM (≈ 2.26 µg/mL)
- CCc1c(C)nc(-n2nc(C)cc2NC(=O)CCc2ccccc2)[nH]c1=O — 3.5-fold higher, 3.8 µM (≈ 1.39 µg/mL)
- CCCCC1=NN(C(=O)c2ccncc2)C(O)(C(F)(F)F)C1 (configuration not stated) — 5-fold higher, 5.5 µM (≈ 1.73 µg/mL)
- Cc1ccc2nc(N(CCCn3ccnc3)C(=O)C=Cc3cccs3)sc2c1 — 7.5-fold higher, 8.2 µM (≈ 3.35 µg/mL)
- O=C(c1cc2ccccc2o1)N1CCN(Cc2ccc3c(c2)OCO3)CC1 — 2.5-fold higher, 2.7 µM (≈ 0.984 µg/mL)
- O=C(NCc1ccc(Oc2ccccc2)cc1)c1c(C(F)(F)F)nc2ccccn12 — 5.5-fold lower, 0.2 µM (≈ 0.0823 µg/mL)
- COCCN1CCN(c2ncc(-c3ccccc3OCc3cc(C)on3)cn2)CC1 — 4-fold higher, 4.4 µM (≈ 1.8 µg/mL)
- O=C(Nc1nc(-c2ccccn2)cs1)c1cncn1-c1ccccc1 — 4.5-fold higher, 4.9 µM (≈ 1.7 µg/mL)
- CN(C)CCNCc1ccc(-c2cc(Cl)cc(Cl)c2)o1 — 2.5-fold higher, 2.7 µM (≈ 0.846 µg/mL)
